Measured values: PubChem BioAssay (NCI)
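1) Cells in 96-well plates. 2) Compound, 48 h, 5 concentrations. 3) Linear interpolation between surrounding doses. 4) Unreached endpoint = highest concentration. The concentration for 50% growth inhibition is given as GI50. The concentration for full growth arrest is given as TGI.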

Key:
Assay in all cases: NCI tumour cell line growth inhibition, 48 h
SW-620 colon = test system: SW-620 colon
SR leukemia = test system: SR leukemia
A549 NSCLC = test system: A549 NSCLC
K-562 leukemia = test system: K-562 leukemia
HCT-116 colon = test system: HCT-116 colon
NCI-H522 lung = test system: NCI-H522 lung
UACC-62 melanoma = test system: UACC-62 melanoma
SK-MEL-2 melanoma = test system: SK-MEL-2 melanoma
MDA-MB-435 = test system: MDA-MB-435
DU-145 prostate = test system: DU-145 prostate

Structure (SMILES)	TGI (SW-620 colon)	TGI (SR leukemia)	TGI (A549 NSCLC)	TGI (K-562 leukemia)	TGI (HCT-116 colon)	TGI (NCI-H522 lung)	TGI (UACC-62 melanoma)	TGI (SK-MEL-2 melanoma)	GI50 (SW-620 colon)	GI50 (MDA-MB-435)	TGI (MDA-MB-435)	GI50 (A549 NSCLC)	GI50 (K-562 leukemia)	GI50 (HCT-116 colon)	GI50 (DU-145 prostate)	TGI (DU-145 prostate)	GI50 (UACC-62 melanoma)	GI50 (SR leukemia)
Cc1ccc(NC(=O)C(=O)C(C(=O)/C=C/c2ccccc2)C2OC(=O)c3ccccc32)c(C)c1 (centres undefined)	> 100 µM	> 100 µM	> 100 µM	> 100 µM	> 100 µM	> 100 µM	> 100 µM	–	–	–	–	–	–	–	–	–	–	–
O=C(Cc1nc2ccccc2o1)C(=O)Nc1cccc(C(F)(F)F)c1	> 100 µM	–	> 100 µM	> 100 µM	> 100 µM	> 100 µM	> 100 µM	> 100 µM	–	–	–	–	–	–	–	–	–	–
O=C(O)CCNS(=O)(=O)c1ccc([N+](=O)[O-])cc1	> 100 µM	–	> 100 µM	> 100 µM	–	> 100 µM	> 100 µM	> 100 µM	–	–	–	–	–	–	–	–	–	–
N#CC1(C#N)C(c2ccccc2)C=CC12OCCCO2 (centres undefined)	> 100 µM	> 100 µM	> 100 µM	> 100 µM	> 100 µM	32.6 µM	> 100 µM	> 100 µM	–	–	–	–	–	–	–	–	–	–
C[n+]1c2ccccc2nc2c(N)cc(N)cc21	> 100 µM	–	> 100 µM	33.2 µM	83.6 µM	–	31.7 µM	–	10.7 µM	15.9 µM	41.5 µM	14.1 µM	3.07 µM	10.5 µM	16 µM	> 100 µM	12.9 µM	–
CC1=C(CC2C(=O)N(c3ccccc3)S(=O)(=O)NC2C)C(=O)N(c2ccccc2)S(=O)(=O)N1C (centres undefined)	> 100 µM	> 100 µM	> 100 µM	> 100 µM	> 100 µM	> 100 µM	> 100 µM	> 100 µM	–	–	–	–	–	–	–	–	–	–
CCOC(=O)/C(I)=C/c1cc(OC)c(OC)c(OC)c1	11.6 µM	8.8 µM	22.5 µM	> 100 µM	12.5 µM	12.9 µM	16.1 µM	> 100 µM	–	–	–	–	–	–	–	–	–	–
NNc1nnc(-c2nnc(NN)o2)o1	> 10 µM	> 10 µM	> 10 µM	> 10 µM	> 10 µM	–	> 10 µM	–	–	–	> 10 µM	–	–	–	–	> 10 µM	–	–
COc1cc(C2(C)SCCCS2)cc(OC)c1OC	> 100 µM	> 100 µM	> 100 µM	> 100 µM	> 100 µM	> 100 µM	> 100 µM	> 100 µM	–	–	–	–	–	–	–	–	–	–
CCOC(=O)C1Nc2ccccc2[C@H]2OCC[C@@H]12 (some centres undefined)	> 100 µM	–	> 100 µM	> 100 µM	> 100 µM	> 100 µM	> 100 µM	> 100 µM	–	–	–	–	–	–	–	–	–	–
O=C(NCCNCCO)c1cccc2ccc(-c3ccccc3)nc12	14.2 µM	–	12.8 µM	> 100 µM	11.8 µM	–	13.8 µM	20.2 µM	–	–	–	–	–	–	–	–	–	–
COc1ccc(OC(=O)CC2Cc3cc(OC)c(OC)c(OC)c3-c3ccc(SC)c(=O)cc32)cc1 (centres undefined)	> 39.7 µM	> 100 µM	> 100 µM	> 100 µM	11.2 µM	0.527 µM	21 µM	59 µM	–	–	–	–	–	–	–	–	–	–
C[CH2][Hg][S]c1ccccc1C(=O)O	2.24 µM	3.75 µM	3.94 µM	–	2.58 µM	–	2.98 µM	–	0.838 µM	1.4 µM	2.95 µM	1.78 µM	–	1.31 µM	1.83 µM	3.41 µM	1.36 µM	0.444 µM
